Measured values from US12459951B2, “Compounds that interact with RAS superfamily proteins for treatment of cancers, inflammatory diseases, rasopathies, and fibrotic disease” (SHY Therapeutics, LLC, priority 2022, dated 2025).

Tests used:
[1] = test system: Smad2/Smad3 phosphorylation; experiment: Phospho-Smad2/3 Inhibition Assay (western blot), Panc-1; format: cell-based, human; conditions: at 10 μM, Panc-1 pancreatic cancer cell line; starred symbols = activation
How it was run: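 Western blotting of lysates (15-50 μg protein) read phosphorylation of Smad2 Ser465/467 and Smad3 Ser423/425. Before lysis, Panc-1 cells got 1 h of 10 ng/ml TGF-b1 following 3 h compound exposure at 37° C (10 μM final, or serial dilutions for IC50, 0.3% DMSO) after overnight 0.5% FBS starvation.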

Erk1/2 phosphorylation = experiment: Erk1/2 Phosphorylation Assay (western blot), Panc-1; format: cell-based, human; conditions: at 10 μM, * = activation
How it was run: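 Phospho-Erk1/2 (Thr202/Tyr204) was detected by western blot in lysates of Panc-1 cells (KRas G12D). These had 6 h, 37° C exposure to 10 μM compound or a dilution series for IC50, in 0.3% DMSO. Cells were either starved overnight in 0.5% FBS with a 15-min 1.5 ng/ml EGF pulse, or kept unstimulated in 10% FBS.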

SMILES	% inh of Smad2/3 phosphorylation in Panc-1 [1]	% inh of Erk1/2 phosphorylation in Panc-1 (Erk1/2 phosphorylation)
Cn1ccnc1-c1nc(NS(C)(=O)=O)c2c(-c3ccccc3)c(-c3ccccc3)cn2n1 [Compound 212, N-(2-(1-Methyl-1H-imidazol-2-yl)-5,6-diphenylpyrrolo[2,1-f][1,2,4]triazin-4-yl) methanesulfonamide]	C (C = 46-75% inhibition)	B* (26-49% activation)
CO[C@@H]1C[C@H]1Nc1nc(-c2nccn2C)nn2cc(-c3ccncc3)c(-c3ccccc3)c12 (racemic) [Compound 197, rac N-((1R,2R)-2-methoxycyclopropyl)-2-(1-methyl-1H-imidazol-2-yl)-5-phenyl-6-(pyridin-4-yl)pyrrolo[2,1-f][1,2,4]triazin-4-amine]	C (C = 46-75% inhibition)	D* (85-100% activation)
CO[C@H]1C[C@H](Nc2nc(-c3nccn3C)nn3cc(-c4cccnc4)c(-c4cccnc4)c23)C1 [Compound 171, N-((1r,3r)-3-Methoxycyclobutyl)-2-(1-methyl-1H-imidazol-2-yl)-5,6-di(pyridin-3-yl)pyrrolo[2,1-f][1,2,4]triazin-4-amine]	B (B = 26-45% inhibition)	B (26-49% inhibition)
Cc1c(-c2ccn(C)n2)cn2nc(-c3nccn3C)nc(Nc3ccc(-n4ccnc4)cn3)c12 [Compound 242, N-(5-(1H-Imidazol-1-yl)pyridin-2-yl)-5-methyl-2-(1-methyl-1H-imidazol-2-yl)-6-(1-methyl-1H-pyrazol-3-yl)pyrrolo[2,1-f][1,2,4]triazin-4-amine]	A (A = 1-25% inhibition)	0 (0% inhibition)
COc1cc(Nc2nc(-c3nccn3C)nn3cc(-c4cccnc4)c(-c4cccnc4)c23)ncn1 [Compound 170, N-(6-Methoxypyrimidin-4-yl)-2-(1-methyl-1H-imidazol-2-yl)-5,6-di(pyridin-3-yl)pyrrolo[2,1-f][1,2,4]triazin-4-amine]	A (A = 1-25% inhibition)	A* (1-25% activation)
CO[C@H]1CC[C@@H](Nc2nc(-c3nccn3C)nn3cc(-c4cccnc4)c(-c4ccccc4)c23)C1 (racemic) [Compound 193, rac N-((1R,3S)-3-Methoxycyclopentyl)-2-(1-methyl-1H-imidazol-2-yl)-5-phenyl-6-(pyridin-3-yl)pyrrolo[2,1-f][1,2,4]triazin-4-amine]	A (A = 1-25% inhibition)	D* (85-100% activation)
COCCCNC(=O)c1c(-c2ccn(C)n2)cn2nc(-c3nccn3C)nc(N[C@H]3CC[C@H](OC)C3)c12 (racemic) [Compound 184, rac 4-(((1S,3S)-3-methoxycyclo-pentyl)amino)-N-(3-methoxypropyl)-2-(1-methyl-1H-imidazol-2-yl)-6-(1-methyl-1H-pyrazol-3-yl)pyrrolo[2,1-f][1,2,4]triazine-5-carboxamide]	B* (B* = 26-45% activation)	A* (1-25% activation)
Cc1c(-c2ccn(C)n2)cn2nc(-c3nccn3C)nc(Nc3cc4c(cn3)CCO4)c12 [Compound 221, N-(5-Methyl-2-(1-methyl-1H-imidazol-2-yl)-6-(1-methyl-1H-pyrazol-3-yl)pyrrolo[2,1-f][1,2,4]triazin-4-yl)-2,3-dihydrofuro[3,2-c]pyridin-6-amine]	A (A = 1-25% inhibition)	A* (1-25% activation)
COCCNC(=O)c1c(-c2ccn(C)n2)cn2nc(-c3nccn3C)nc(N[C@H]3CC[C@H](OC)C3)c12 (racemic) [Compound 183, rac 4-(((1S,3S)-3-Methoxycyclo-pentyl)amino)-N-(2-methoxyethyl)-2-(1-methyl-1H-imidazol-2-yl)-6-(1-methyl-1H-pyrazol-3-yl)pyrrolo[2,1-f][1,2,4]triazine-5-carboxamide]	D* (D* = 76-100% activation)	D* (85-100% activation)
COc1ccc(Nc2nc(-c3nccn3C)nn3cc(-c4ccn(C)n4)c(C)c23)nc1 [Compound 224, N-(5-Methoxypyridin-2-yl)-5-methyl-2-(1-methyl-1H-imidazol-2-yl)-6-(1-methyl-1H-pyrazol-3-yl)pyrrolo[2,1-f][1,2,4]triazin-4-amine]	0 (0 = 0% inhibition)	C* (46-84% activation)
CO[C@H]1C[C@H](Nc2nc(-c3nccn3C)nn3cc(-c4cccnc4)c(-c4ccccc4)c23)C1 [Compound 192, N-((1r,3r)-3-Methoxycyclobutyl)-2-(1-methyl-1H-imidazol-2-yl)-5-phenyl-6-(pyridin-3-yl)pyrrolo[2,1-f][1,2,4]triazin-4-amine]	A* (A* = 1-25% activation)	D* (85-100% activation)
CO[C@H]1C[C@H](Nc2nc(-c3nccn3C)nn3cc(-c4cccc5c4CCO5)c(-c4ccccc4)c23)C1 [Compound 210, 6-(2,3-Dihydrobenzofuran-4-yl)-N-((1r,3r)-3-methoxycyclobutyl)-2-(1-methyl-1H-imidazol-2-yl)-5-phenylpyrrolo[2,1-f][1,2,4]triazin-4-amine]	D (D = 76-100% inhibition)	D (85-100% inhibition)
COc1ccnc(Nc2nc(-c3nccn3C)nn3cc(-c4ccn(C)n4)c(C(=O)N4CCCC4)c23)c1 [Compound 178, (4-((4-Methoxypyridin-2-yl)amino)-2-(1-methyl-1H-imidazol-2-yl)-6-(1-methyl-1H-pyrazol-3-yl)pyrrolo[2,1-f][1,2,4]triazin-5-yl)(pyrrolidin-1-yl)methanone]	B* (B* = 26-45% activation)	D* (85-100% activation)
COc1ccnc(Nc2nc(-c3nccn3CCN)nn3cc(-c4ccn(C)n4)c(C)c23)c1 [Compound 188, 2-(1-(2-Aminoethyl)-1H-imidazol-2-yl)-N-(4-methoxypyridin-2-yl)-5-methyl-6-(1-methyl-1H-pyrazol-3-yl)pyrrolo[2,1-f][1,2,4]triazin-4-amine]	B (B = 26-45% inhibition)	A (1-25% inhibition)
CCNC(=O)c1c(-c2ccn(C)n2)cn2nc(-c3nccn3C)nc(Nc3cc(OC)ccn3)c12 [Compound 173, N-Ethyl-4-((4-methoxypyridin-2-yl)amino)-2-(1-methyl-1H-imidazol-2-yl)-6-(1-methyl-1H-pyrazol-3-yl)pyrrolo[2,1-f][1,2,4]triazine-5-carboxamide]	D* (D* = 76-100% activation)	C (50-84% inhibition)
Cc1c(-c2ccn(C)n2)cn2nc(-c3nccn3C)nc(Nc3ccc(OCC(F)(F)F)cn3)c12 [Compound 230, 5-Methyl-2-(1-methyl-1H-imidazol-2-yl)-6-(1-methyl-1H-pyrazol-3-yl)-N-(5-(2,2,2-trifluoroethoxy)pyridin-2-yl)pyrrolo[2,1-f][1,2,4]triazin-4-amine]	D (D = 76-100% inhibition)	D* (85-100% activation)
COc1ccnc(Nc2nc(-c3nccn3C)nn3cc(-c4ccn(C)n4)c(C(=O)N4CCOCC4)c23)c1 [Compound 179, (4-((4-Methoxypyridin-2-yl)amino)-2-(1-methyl-1H-imidazol-2-yl)-6-(1-methyl-1H-pyrazol-3-yl)pyrrolo[2,1-f][1,2,4]triazin-5-yl)(morpho-lino)methanone]	C* (C* = 46-75% activation)	D* (85-100% activation)
COc1cccc(-c2cn3nc(-c4nccn4C)nc(O)c3c2C)c1Cl [Compound 15, 6-(2-Chloro-3-methoxyphenyl)-5-methyl-2-(1-methyl-1H-imidazol-2-yl)pyrrolo[2,1-f][1,2,4]triazin-4-ol]	0 (0 = 0% inhibition)	0 (0% inhibition)
COCCNc1nc(-c2nccn2C)nn2cc(-c3cccnc3)c(-c3ccccc3)c12 [Compound 195, N-(2-Methoxyethyl)-2-(1-methyl-1H-imidazol-2-yl)-5-phenyl-6-(pyridin-3-yl)pyrrolo[2,1-f][1,2,4]triazin-4-amine]	A* (A* = 1-25% activation)	B* (26-49% activation)
COc1ccnc(Nc2nc(-c3nccn3C)nn3cc(-c4ccn(C)n4)c(C(=O)NC4CC4)c23)c1 [Compound 175, N-Cyclopropyl-4-((4-methoxypyridin-2-yl)amino)-2-(1-methyl-1H-imidazol-2-yl)-6-(1-methyl-1H-pyrazol-3-yl)pyrrolo[2,1-f][1,2,4]triazine-5-carboxamide]	B* (B* = 26-45% activation)	D* (85-100% activation)
COc1ccc(N(C)c2nc(-c3nccn3C)nn3cc(-c4ccn(C)n4)c(C)c23)nc1 [Compound 225, N-(5-Methoxypyridin-2-yl)-N,5-dimethyl-2-(1-methyl-1H-imidazol-2-yl)-6-(1-methyl-1H-pyrazol-3-yl)pyrrolo[2,1-f][1,2,4]triazin-4-amine]	0 (0 = 0% inhibition)	B (26-49% inhibition)
